# Like-named read-outs stand apart in the source and are kept apart here.
# Key:
# corn earworm larvae = assay: leaf dip test, corn earworm larvae; type: in vivo; conditions: Helicoverpa zea, foliar, Bta 27 ppm, flubendiamide 0.975 ppm, mixture 27 ppm + 0.975 ppm, read-out: % Efficacy
# Protocol: (§1) The following examples illustrate the synergy of Bacillus thuringiensis subsp. aizawai and flubendiamide when controlling diamondback moth, beet armyworm, soybean looper, corn earworm, and sugarcane borer. Xentari® was used as the source of Bacillus thuringiensis subsp. aizawai and Belt® was used as the source of flubendiamide. The present invention is not limited to the products or formulation types used herein. In each example below, the studies were conducted as follows.
# (§2) For these tests, standardized laboratory leaf dip methods were used to inoculate plant material with treatment(s). Dry, treated leaves were placed into Petri dishes (100×25 mm) containing filter paper wetted with 500 μl of distilled H2O (“dH2O”). Each dish was then infested with between 5 and 10 larvae, dependent on species. Efficacy ratings were taken at specified intervals. Synergy ratings were calculated for each test.
# (§3) % Cexp=A+B−(AB/100), where % Cexp is the expected efficacy and “in which A and B are the control levels given by the single [insecticides]. […] Adopting a conservative approach, Applicant determined synergy to be present at ratios of ≧1.15. […]
# sugarcane borer larvae = assay: leaf dip test, sugarcane borer larvae; type: in vivo; conditions: Diatraea saccharalis, foliar, Bta 27 ppm, flubendiamide 2.15 ppm, mixture 27 ppm + 2.15 ppm, read-out: % Efficacy
# Protocol: as §1, §2, §3
# [1] = tested on: southwestern corn borer larvae; assay: leaf dip test, southwestern corn borer larvae; type: in vivo; conditions: foliar, Bta 2.7 ppm, flubendiamide 0.39 ppm, mixture 2.7 ppm + 0.39 ppm, read-out: % Efficacy
# cabbage looper larvae = assay: leaf dip test, cabbage looper larvae; type: in vivo; conditions: Trichoplusia ni, foliar, Bta 2.7 ppm, flubendiamide 0.49 ppm, mixture 2.7 ppm + 0.49 ppm, read-out: % Efficacy
# beet armyworm larvae = assay: leaf dip test, beet armyworm larvae; type: in vivo; conditions: Spodoptera exigua, foliar, Bta 2.7 ppm, flubendiamide 0.49 ppm, mixture 2.7 ppm + 0.49 ppm, read-out: % Efficacy
# Protocol: as §1, §2, §3
# diamondback moth larvae = assay: leaf dip test, diamondback moth larvae; type: in vivo; conditions: Plutella xylostella, foliar, Bta 2.7 ppm, flubendiamide 0.215 ppm, mixture 2.7 ppm + 0.215 ppm, read-out: % Efficacy
# Protocol: as §1
# For these tests, standardized laboratory leaf dip methods were used to inoculate plant material with treatment(s). Dry, treated leaves were placed into Petri dishes (100×25 mm) containing filter paper wetted with 500 μl of distilled H2O (“dH2O”). […] Synergy ratings were calculated for each test. […]
# as §3
# In order to determine synergy, rates below normal field rate ranges must be used. If normal field rate ranges are used, all of the larvae would die (combining a lethal or near lethal dose of Bacillus thuringiensis subsp. aizawai with a lethal dose of flubendiamide would most likely lead to larvae death) in every treatment and synergy would not be able to be determined. […]
# soybean looper larvae = assay: leaf dip test, soybean looper larvae; type: in vivo, Chrysodeixis includens; conditions: foliar, Bta 27 ppm, flubendiamide 3.9 ppm, mixture 27 ppm + 3.9 ppm, read-out: % Efficacy
# Protocol: as §1, §2, §3
smiles,measurement,setting,value
"Cc1cc(C(F)(C(F)(F)F)C(F)(F)F)ccc1NC(=O)c1cccc(I)c1C(=O)NC(C)(C)CS(C)(=O)=O [Flubendiamide, 3-iodo-N′-(2-mesyl-1,1-dimethylethyl)-N-{4-[1,2,2,2-tetrafluoro-1-(trifluoromethyl)ethyl]-o-tolyl}phthalamide]",Emax at 0.975 ppm,corn earworm larvae; 24 h after treatment,16%
same,Emax at 0.975 ppm,corn earworm larvae; 48 h after treatment,29%
same,Emax at 2.15 ppm,sugarcane borer larvae; 24 h after treatment,44%
same,Emax at 2.15 ppm,sugarcane borer larvae; 48 h after treatment,68%
same,Emax at 0.39 ppm,[1]; 24 h after treatment,40%
same,Emax at 0.39 ppm,[1]; 48 h after treatment,49%
same,Emax at 0.49 ppm,cabbage looper larvae; 24 h after treatment,4%
same,Emax at 0.49 ppm,cabbage looper larvae; 48 h after treatment,21%
same,Emax at 0.49 ppm,beet armyworm larvae; 24 h after treatment,12%
same,Emax at 0.49 ppm,beet armyworm larvae; 48 h after treatment,26%
same,Emax at 0.215 ppm,diamondback moth larvae; 24 h after treatment,11%
same,Emax at 0.215 ppm,diamondback moth larvae; 48 h after treatment,25%
same,Emax at 3.9 ppm,soybean looper larvae; 24 h after treatment,3%
same,Emax at 3.9 ppm,soybean looper larvae; 48 h after treatment,20%

# From patent US20170311605A1, “SYNERGISTIC BACILLUS THURINGIENSIS SUBSP. AIZAWAI AND FLUBENDIAMIDE MIXTURES FOR DIAMONDBACK MOTH, BEET ARMYWORM, SOYBEAN LOOPER, CORN EARWORM, AND SUGARCANE BORER CONTROL” (Valent BioSciences LLC, priority 2016, published 2017)
